Earlier results as cited in patent publication US20060051490A1, “Food component and processes for the preparation thereof” (priority 2003, published 2006).

Settings: for solubility in 100 parts of water: in 100 parts of water at room temperature, approximate

| miscibility with water | solubility in 100 parts of water [parts] | SMILES |
| --- | --- | --- |
| miscible with water in all proportions | – | CC(O)C(=O)O (stereo not shown) [lactic acid] |
| miscible with water in all proportions | – | CC(=O)O [Acetic acid, acetic acid] |
| – | ~150 | O=C(O)CC(O)C(=O)O (stereo not shown) [malic, malic acid] |
| – | ~1.5 | O=C(O)/C=C/C(=O)O [fumaric, fumaric acid] |
